Laboratory results: patent US20050054536A1, “Beta-amino-alpha-cyanoacrylates and their use as herbicides” (priority 2001, published 2005)

What was measured:
Setaria faberii [1] = assay: greenhouse experiment, post-emergence treatment, herbicidal activity; type: in vivo; conditions: application rate 1.0 kg/ha
Text: (§1) The seeds of the test plants were sown separately for each species. For the post-emergence treatment, the test plants were first grown to a height of from 3 to 15 cm, depending on the plant habit, and only then treated with the active compounds which had been suspended or emulsified in water. The test plants were for this purpose either sown directly and grown in the same containers, or they were first grown separately as seedlings and transplanted into the test containers a few days prior to treatment. The application rate for the post-emergence treatment was 0.5 or 1.0 kg of a.s. (active substance)/ha. Depending on the species, the plants were kept at from 10 to 25° C. or from 20 to 35° C. The test period extended over 2 to 4 weeks. During this time, the plants were tended, and their response to the individual treatments was evaluated. Evaluation was carried out using a scale from 0 to 100. 100 means no emergence of the plants, or complete destruction of at least the above-ground parts, and 0 means no damage, or normal course of growth. The plants used in the greenhouse experiments were of the following species: [table]

Pharbitis purpurea = assay: as above; type: in vivo; conditions: application rate 1.0 kg/ha
Text: as §1

Setaria faberii [2] = assay: greenhouse experiment, pre-emergence treatment, herbicidal activity; type: in vivo; conditions: application rate 1.0 kg/ha
Text: (§2) The seeds of the test plants were sown separately for each species. For the pre-emergence treatment, directly after sowing the active compounds, which had been suspended or emulsified in water, were applied by means of finely distributing nozzles. The containers were irrigated gently to promote germination and growth and subsequently covered with transparent plastic hoods until the plant had rooted. This cover caused uniform germination of the test plants, unless this was adversely affected by the active compounds. The application rate for a pre-emergence treatment was 0.5 or 1.0 kg of a.s. (active substance)/ha. Depending on the species, the plants were kept at from 10 to 25° C. or from 20 to 35° C. The test period extended over 2 to 4 weeks. During this time, the plants were tended, and their response to the individual treatments was evaluated. Evaluation was carried out using a scale from 0 to 100. 100 means no emergence of the plants, or complete destruction of at least the above-ground parts, and 0 means no damage, or normal course of growth. The plants used in the greenhouse experiments were of the following species: [table]

Amaranthus retroflexus = assay: as above; type: in vivo; conditions: application rate 1.0 kg/ha
Text: as §2

Digitaria sanguinalis = assay: as above; type: in vivo; conditions: application rate 1.0 kg/ha
Text: as §2

SMILES	melting point	post-emergence activity against the undesirable plant Pharbitis purpurea (Pharbitis purpurea)	effect on the harmful plant Setaria faberii, pre-emergence method (Setaria faberii [2])	further results
CCOC(=O)/C(C#N)=C(\N)C(CC)CC [Example 2.1, Ethyl (2Z)-3-amino-2-cyano-4-ethyl-2-hexenoate]	85 to 87 °C	very good	very good	post-emergence activity against the undesirable plant Setaria faberii (Setaria faberii [1]): very good; effect on the harmful plant Amaranthus retroflexus, pre-emergence method (Amaranthus retroflexus): very good
CCCOC(=O)/C(C#N)=C(\N)C(CC)CC [Example 2.2, n-Propyl (2Z)-3-amino-2-cyano-4-ethyl-2-hexenoate]	84 °C	very good	very good	effect on the harmful plant Digitaria sanguinalis, pre-emergence method (Digitaria sanguinalis): very good
CCCOC(=O)/C(C#N)=C(\N)C(CC)CSC (stereo not shown) [Example 2.3, n-Propyl (2Z)-3-amino-2-cyano-4-[(methylsulfanyl)methyl]-2-hexenoate]	78 °C			
CCC(CC)/C(N)=C(\C#N)C(=O)OC [Example 2.5]	65 °C			
CCOC(=O)/C(C#N)=C(\N)C(C)CC (stereo not shown) [Example 2.6]	102 to 103 °C			
CCOC(=O)/C(C#N)=C(\N)C(C)(C)CC [Example 2.8]	65 to 67 °C			
CCOC(=O)/C(C#N)=C(\N)C(C)(C)Cl [Example 2.9]	56 °C			
CCOC(=O)/C(C#N)=C(\N)C(C)(C)Br [Example 2.10]	46 °C			
CCC(CC)/C(N)=C(\C#N)C(=O)OCCOC [Example 2.22]	70 °C	very good	very good	
CCOCCOC(=O)/C(C#N)=C(\N)C(CC)CC [Example 2.23]	70 °C			
